Source: PMC8779485, “Implementation and Comparison of Two Pharmacometric Tools for Model-Based Therapeutic Drug Monitoring and Precision Dosing of Daptomycin” (Pharmaceutics, 2022)

Columns and labels:
[1] = cited from earlier work
Description: Daptomycin is a cyclic lipopeptide antibiotic with bactericidal activity on Gram-positive bacteria discovered in 1980 [1, 2]. The Food and Drug Administration (FDA) approved its use in 2003 for treating complicated skin and skin structure infections and Staphylococcus aureus bloodstream infections, including those with right-sided infective endocarditis. In those indications, the recommended dosing regimen ranges from 4 to 6 mg/kg. Daptomycin is also used off-label in various indications, including bloodstream infections caused by Gram-positive agents others than S. aureus and bone an ...

[2] = Nonparametric population PK model of daptomycin (NPAG, Pmetrics) in the learning dataset
Excerpt: (§1) We used two data sets: a learning set used to derive the nonparametric population model of daptomycin and a validation dataset. The learning dataset was described in a previous publication from our group, which focused on the influence of P-gp gene polymorphism on daptomycin PK (n = 81 patients). […] All patients were enrolled in a cohort study after information. This cohort study was subject to a declaration to the local Commission for Data Protection and Liberties (number 17-057) and is registered on ClinicalTrial.gov (number NCT03134521). In addition, patients’ written informed consent was obtained for P-gp genotyping, in accordance with French regulation.
(§2) Blood samples for daptomycin TDM were obtained during hospitalization or follow-up visit at the BJI center. In most patients, TDM was performed on several occasions to control drug exposure throughout therapy. At each occasion, a typical PK profile was obtained, including three plasma samples collected approximately pre-dose (trough or Cmin), 30 min and 5 to 6 h after daptomycin administration. On some occasions, only one or two samples could be obtained. Sampling times were recorded precisely in each patient. Daptomycin plasma concentrations were measured using an HPLC assay with a photodiode array detector. The method was adapted from a previous publication.
(§3) In our previous work, the final population PK model of daptomycin was built by using a parametric approach (SAEM algorithm in the Monolix software). […] We reanalyzed the original dataset in order to implement a nonparametric model into the BestDose software. The NPAG algorithm embedded into the Pmetrics package for R was used to develop the nonparametric model. […] The error model was based on the assay error pattern. The predictive performance of the final model was assessed by computing the bias and precision of model-based individual predictions (see below). The model was then imported into the Windows version of the BestDose software.

[3] = in vivo; cited from earlier work
Excerpt: However, increasing daptomycin doses raises concerns about safety. It was shown that daptomycin muscular toxicity, as measured by elevation in serum creatinine phosphokinase (CPK), correlated with plasma trough concentration (Cmin).

[4] = Daptomycin TDM in patients with bone and joint infection, Bayesian estimation with nonparametric model in BestDose (validation dataset)
Excerpt: as §1, §2, §3
(§4) We used an external dataset from 94 patients who received daptomycin for BJI and had TDM to validate the predictive performance of our nonparametric model in BestDose and that of the parametric model in Tucuxi. In this evaluation, we only used the daptomycin concentrations collected during the first TDM occasion in each patient.
(§5) The dosage history, covariate values, times and values of measured concentrations in each patient were entered into each program. The population model was fit to individual data by using Bayesian regression in both tools. After estimation of Bayesian posterior individual PK parameters, the estimated PK profile of each patient was obtained, including predictions of measured daptomycin concentrations.
(§6) Because daptomycin AUC is an important predictor of its antibacterial effect, we also compared the estimations of individual daily AUC (AUC24h) in the 94 patients provided by BestDose and Tucuxi.

[5] = Daptomycin TDM in patients with bone and joint infection, Bayesian estimation with parametric model (Dvorchik et al.) in Tucuxi (validation dataset)
Excerpt: as §1, §2
As we aimed at comparing our nonparametric model to a reference model for TDM and dose adjustment, we implemented the seminal daptomycin parametric model developed by daptomycin’s manufacturer into the Tucuxi software. Tucuxi is a new software dedicated to the analysis of TDM results and individual dose adjustment (http://www.tucuxi.ch/, accessed 27 December 2021).
The two-compartment reference model from Dvorchik et al. was imported into Tucuxi, including its error model and all its covariates except body temperature, which influenced daptomycin clearance in the original model. This covariate was discarded because it is not measured consistently in all patients in routine, especially in outpatients, and its value may be altered by co-treatment such as acetaminophen. The other covariates were retained, with creatinine clearance and sex influencing daptomycin clearance and body weight influencing both intercompartment clearance and peripheral volume of distribution.
as §4, §5, §6

[6] = patients who received 6 mg/kg; cited from earlier work
[7] = learning dataset n = 81, Pmetrics estimation, mean
[8] = learning dataset n = 81, Pmetrics estimation, median

CCCCCCCCCC(=O)N[C@@H](Cc1c[nH]c2ccccc12)C(=O)N[C@H](CC(N)=O)C(=O)N[C@@H](CC(=O)O)C(=O)N[C@@H]1C(=O)NCC(=O)N[C@@H](CCCN)C(=O)N[C@@H](CC(=O)O)C(=O)N[C@H](C)C(=O)N[C@@H](CC(=O)O)C(=O)NCC(=O)N[C@H](CO)C(=O)N[C@@H]([C@H](C)CC(=O)O)C(=O)N[C@@H](CC(=O)c2ccccc2N)C(=O)O[C@@H]1C [daptomycin, Daptomycin]
Average ratio of area under the unbound concentration time-curve in bone over plasma ([1]; 10 patients): 1.08
Average tissue to plasma concentration ratio, bone ([1]; bone): 14.1%
Average tissue to plasma concentration ratio, synovial fluid ([1]; synovial fluid): 54%
Kpc (transfer rate constant peripheral to central), mean ([2]; in vivo): 0.667 h⁻¹
Kpc (transfer rate constant peripheral to central), median ([2]; in vivo): 0.449 h⁻¹
Kcp (transfer rate constant central to peripheral), mean [2, 7]: 0.693 h⁻¹
Ki (non-renal component of elimination rate constant), mean [2, 7]: 0.060 h⁻¹
Ks (renal component of elimination rate constant), mean [2, 7]: 0.050 h^−1 per 100 mL/min of CLCR
Kcp (transfer rate constant central to peripheral), median [2, 8]: 0.287 h⁻¹
Ki (non-renal component of elimination rate constant), median [2, 8]: 0.052 h⁻¹
Ks (renal component of elimination rate constant), median [2, 8]: 0.045 h^−1 per 100 mL/min of CLCR
V1 (central volume of distribution), mean ([2]; population parameter, learning dataset n = 81, Pmetrics estimation, mean): 6.90 L per 70 kg
V1 (central volume of distribution), median ([2]; population parameter, learning dataset n = 81, Pmetrics estimation, median): 7.18 L per 70 kg
Upper bound for Cmin target (CPK elevation) [3]: 24300 ng/mL
T1/2 (terminal half-life) ([4]; BestDose individual estimate, validation dataset n = 94, mean ± SD, SD): 16.8 ± 10.6 h
Proportion of patients with AUC24h < 666 mg.h/L (underexposed) ([4]; human, in vivo): 21.3%
AUC24h ([4]; human, in vivo, 1.3 mg/kg, SD): 975 ± 395 µg·h/mL
CLdap (daptomycin total body clearance) ([4]; human, in vivo, SD): 0.74 ± 0.42 L/h
Cmin ([4]; human, in vivo, SD): 21300 ± 12900 ng/mL
Dmin (minimum effective dose to attain AUC24h = 666 mg.h/L at steady-state) ([4]; human, in vivo, SD): 6.4 ± 2.7 mg/kg
Predicted concentrations ([4]; human, in vivo, SD): 46.6 ± 46.7 mg/L
V1 ([4]; human, in vivo, SD): 7.9 ± 3.5 L
T1/2 (terminal half-life) ([5]; Tucuxi individual estimate, validation dataset n = 94, mean ± SD): 13.1 ± 4.7 h
AUC24h ([5]; human, in vivo, SD): 893 ± 345 µg·h/mL
CLdap (daptomycin total body clearance) ([5]; human, in vivo, SD): 0.73 ± 0.29 L/h
Dmin (minimum effective dose to attain AUC24h = 666 mg.h/L at steady-state) ([5]; human, in vivo, SD): 6.9 ± 2.8 mg/kg
Predicted concentrations ([5]; human, in vivo, SD): 44.3 ± 44.5 mg/L
V1 ([5]; human, in vivo, SD): 5.9 ± 2.4 L
Rate of efficacy target attainment [6]: 40%
